{"source": "ChEMBL document CHEMBL1137640", "about": "“In vitro antimycobacterial spectrum of a diarylquinoline ATP synthase inhibitor” (2007)", "type_in_all_cases": "functional", "key": {"Mycobacterium avium [1]": {"tested_on": "Mycobacterium avium", "assay": "Antimicrobial activity against Mycobacterium avium 2 after 2 to 4 weeks by two fold dilution method"}, "Mycobacterium avium [2]": {"tested_on": "Mycobacterium avium", "assay": "Antimicrobial activity against Mycobacterium avium 4 after 2 to 4 weeks by two fold dilution method"}, "Mycobacterium avium [3]": {"tested_on": "Mycobacterium avium", "assay": "Antimicrobial activity against Mycobacterium avium 6 after 2 to 4 weeks by two fold dilution method"}, "Mycobacterium avium [4]": {"tested_on": "Mycobacterium avium", "assay": "Antimicrobial activity against Mycobacterium avium 8 after 2 to 4 weeks by two fold dilution method"}, "Mycobacterium avium [5]": {"tested_on": "Mycobacterium avium", "assay": "Antimicrobial activity against Mycobacterium avium 9 after 2 to 4 weeks by two fold dilution method"}, "Mycobacterium avium [6]": {"tested_on": "Mycobacterium avium", "assay": "Antimicrobial activity against Mycobacterium avium 11 after 2 to 4 weeks by two fold dilution method"}, "Mycobacterium avium [7]": {"tested_on": "Mycobacterium avium", "assay": "Antimicrobial activity against Mycobacterium avium 16 after 2 to 4 weeks by two fold dilution method"}, "Mycobacterium avium [8]": {"tested_on": "Mycobacterium avium", "assay": "Antimicrobial activity against Mycobacterium avium 21 after 2 to 4 weeks by two fold dilution method"}, "Mycobacterium avium [9]": {"tested_on": "Mycobacterium avium", "assay": "Antimicrobial activity against Mycobacterium avium 23 after 2 to 4 weeks by two fold dilution method"}, "[10]": {"tested_on": "Mycobacterium intracellulare", "assay": "Antimicrobial activity against Mycobacterium intracellular 7 after 2 to 4 weeks by two fold dilution method"}, "[11]": {"tested_on": "Mycobacterium intracellulare", "assay": "Antimicrobial activity against Mycobacterium intracellular 20 after 2 to 4 weeks by two fold dilution method"}, "[12]": {"tested_on": "Mycobacterium intracellulare", "assay": "Antimicrobial activity against Mycobacterium intracellular 14 after 2 to 4 weeks by two fold dilution method"}, "Mycobacteroides chelonae": {"tested_on": "Mycobacteroides chelonae", "assay": "Antimicrobial activity against Mycobacterium chelonae after 2 to 4 weeks by two fold dilution method"}, "[13]": {"tested_on": "Mycolicibacterium fortuitum", "assay": "Antimicrobial activity against Mycobacterium fortuitum after 2 to 4 weeks by two fold dilution method"}, "[14]": {"tested_on": "Mycolicibacterium mageritense", "assay": "Antimicrobial activity against Mycobacterium mageritense after 2 to 4 weeks by two fold dilution method"}, "Mycolicibacterium phlei": {"tested_on": "Mycolicibacterium phlei", "assay": "Antimicrobial activity against Mycobacterium phlei after 2 to 4 weeks by two fold dilution method"}, "Mycolicibacterium vaccae": {"tested_on": "Mycolicibacterium vaccae", "assay": "Antimicrobial activity against Mycobacterium vaccae after 2 to 4 weeks by two fold dilution method"}, "Mycobacterium kansasii": {"tested_on": "Mycobacterium kansasii", "assay": "Antimicrobial activity against Mycobacterium kansasii after 2 to 4 weeks by two fold dilution method"}, "Mycobacterium malmoense": {"tested_on": "Mycobacterium malmoense", "assay": "Antimicrobial activity against Mycobacterium malmoense after 2 to 4 weeks by two fold dilution method"}, "Mycobacterium gordonae": {"tested_on": "Mycobacterium gordonae", "assay": "Antimicrobial activity against Mycobacterium gordonae after 2 to 4 weeks by two fold dilution method"}, "Mycobacterium simiae": {"tested_on": "Mycobacterium simiae", "assay": "Antimicrobial activity against Mycobacterium simiae after 2 to 4 weeks by two fold dilution method"}, "[15]": {"tested_on": "Mycobacterium scrofulaceum", "assay": "Antimicrobial activity against Mycobacterium scrofulaceum after 2 to 4 weeks by two fold dilution method"}, "Mycolicibacter hiberniae": {"tested_on": "Mycolicibacter hiberniae", "assay": "Antimicrobial activity against Mycobacterium hiberniae after 2 to 4 weeks by two fold dilution method"}, "[16]": {"tested_on": "Mycobacterium interjectum", "assay": "Antimicrobial activity against Mycobacterium interjectum after 2 to 4 weeks by two fold dilution method"}, "Mycobacterium szulgai": {"tested_on": "Mycobacterium szulgai", "assay": "Antimicrobial activity against Mycobacterium szulgai after 2 to 4 weeks by two fold dilution method"}, "Mycolicibacter terrae": {"tested_on": "Mycolicibacter terrae", "assay": "Antimicrobial activity against Mycobacterium terrae after 2 to 4 weeks by two fold dilution method"}, "Mycobacterium conspicuum": {"tested_on": "Mycobacterium conspicuum", "assay": "Antimicrobial activity against Mycobacterium conspicuum after 2 to 4 weeks by two fold dilution method"}, "[17]": {"tested_on": "Mycolicibacterium novocastrense", "assay": "Antimicrobial activity against R207910 resistant Mycobacterium novocastrense after 2 to 4 weeks by two fold dilution method"}, "Mycobacterium xenopi": {"tested_on": "Mycobacterium xenopi", "assay": "Antimicrobial activity against Mycobacterium xenopi after 2 to 4 weeks by two fold dilution method"}, "Mycobacterium shimoidei": {"tested_on": "Mycobacterium shimoidei", "assay": "Antimicrobial activity against Mycobacterium shimoidei after 2 to 4 weeks by two fold dilution method"}, "[18]": {"tested_on": "Mycobacterium tuberculosis", "assay": "Antimicrobial activity against drug-susceptible Mycobacterium tuberculosis isolate after 2 to 4 weeks by two fold dilution method"}, "[19]": {"tested_on": "Mycobacterium avium complex sp.", "assay": "Antimicrobial activity against Mycobacterium avium complex isolate after 2 to 4 weeks by two fold dilution method"}, "Mycobacterium avium [20]": {"tested_on": "Mycobacterium avium", "assay": "Antimicrobial activity against Mycobacterium avium 1 after 2 to 4 weeks by two fold dilution method"}, "[21]": {"conditions": "Mycobacterium avium complex sp."}}}
{"smiles": "COc1nc2ccc(Br)cc2cc1[C@@H](c1ccccc1)[C@@](O)(CCN(C)C)c1cccc2ccccc12", "note": "[BEDAQUILINE]", "values": [{"measurement": "MIC", "setting": "Mycobacterium avium [1]", "value": 0.03, "unit": "µg/mL"}, {"measurement": "MIC", "setting": "Mycobacterium avium [2]", "value": 0.03, "unit": "µg/mL"}, {"measurement": "MIC", "setting": "Mycobacterium avium [3]", "value": 0.13, "unit": "µg/mL"}, {"measurement": "MIC", "setting": "Mycobacterium avium [4]", "value": 0.03, "unit": "µg/mL"}, {"measurement": "MIC", "setting": "Mycobacterium avium [5]", "value": 0.13, "unit": "µg/mL"}, {"measurement": "MIC", "setting": "Mycobacterium avium [6]", "value": 0.03, "unit": "µg/mL"}, {"measurement": "MIC", "setting": "Mycobacterium avium [7]", "value": 0.06, "unit": "µg/mL"}, {"measurement": "MIC", "setting": "Mycobacterium avium [8]", "value": 0.03, "unit": "µg/mL"}, {"measurement": "MIC", "setting": "Mycobacterium avium [9]", "value": 0.03, "unit": "µg/mL"}, {"measurement": "MIC", "setting": "[10]", "value": 0.03, "unit": "µg/mL"}, {"measurement": "MIC", "setting": "[11]", "value": 0.03, "unit": "µg/mL"}, {"measurement": "MIC", "setting": "[12]", "value": 0.03, "unit": "µg/mL"}, {"measurement": "MIC", "setting": "Mycobacteroides chelonae", "value": 0.06, "unit": "µg/mL"}, {"measurement": "MIC", "setting": "[13]", "value": 0.13, "unit": "µg/mL"}, {"measurement": "MIC", "setting": "[14]", "value": 0.03, "unit": "µg/mL"}, {"measurement": "MIC", "setting": "Mycolicibacterium phlei", "value": 0.03, "unit": "µg/mL"}, {"measurement": "MIC", "setting": "Mycolicibacterium vaccae", "value": 0.03, "unit": "µg/mL"}, {"measurement": "MIC", "setting": "Mycobacterium kansasii", "value": 0.03, "unit": "µg/mL"}, {"measurement": "MIC", "setting": "Mycobacterium malmoense", "value": 0.5, "unit": "µg/mL"}, {"measurement": "MIC", "setting": "Mycobacterium gordonae", "value": 0.03, "unit": "µg/mL"}, {"measurement": "MIC", "setting": "Mycobacterium simiae", "value": 0.03, "unit": "µg/mL"}, {"measurement": "MIC", "setting": "[15]", "value": 0.03, "unit": "µg/mL"}, {"measurement": "MIC", "setting": "Mycolicibacter hiberniae", "value": 0.03, "unit": "µg/mL"}, {"measurement": "MIC", "setting": "[16]", "value": 0.03, "unit": "µg/mL"}, {"measurement": "MIC", "setting": "Mycobacterium szulgai", "value": 0.03, "unit": "µg/mL"}, {"measurement": "MIC", "setting": "Mycolicibacter terrae", "value": 0.03, "unit": "µg/mL"}, {"measurement": "MIC", "setting": "Mycobacterium conspicuum", "value": 0.13, "unit": "µg/mL"}, {"measurement": "MIC", "setting": "[17]", "value": 8, "unit": "µg/mL"}, {"measurement": "MIC", "setting": "Mycobacterium xenopi", "value": 4, "unit": "µg/mL"}, {"measurement": "MIC", "setting": "Mycobacterium shimoidei", "value": 8, "unit": "µg/mL"}, {"measurement": "MIC", "setting": "[18]", "value": 0.002, "unit": "µg/mL"}, {"measurement": "MIC50", "setting": "[18]", "value": 0.03, "unit": "µg/mL"}, {"measurement": "MIC90", "setting": "[18]", "value": 0.06, "unit": "µg/mL"}, {"measurement": "MI50", "setting": "[19]", "value": 0.03, "unit": "µg/mL"}, {"measurement": "MIC", "setting": "[19]; [21]", "value": 0.03, "unit": "µg/mL"}, {"measurement": "MIC90", "setting": "[19]; [21]", "value": 0.13, "unit": "µg/mL"}, {"measurement": "MIC", "setting": "Mycobacterium avium [20]", "value": 0.03, "unit": "µg/mL"}]}
